{"source": "patent US20110166206A1", "about": "“UBIQUILIN REGULATION OF PRESENILIN ENDOPROTEOLYSIS, AND SUPPRESSION OF POLYGLUTAMINE-INDUCED TOXICITY IN CELLS” (UNIVERSITY OF MARYLAND BIOTECHNOLOGY INSTITUTE, priority 2005, published 2011)", "key": {"[1]": {"tested_on": "GFP-HttQ74-3 and GFP-HttQ28-2 HeLa cell lines", "test": "Ubiquilin-1 transfection of stable GFP-HttPolyQ HeLa cell lines, serum withdrawal-induced cell death and aggregates", "assay_type": "cell-based", "from_the_text": "FIG. 11. […] The 28Q-2 and 74Q-3 were used in most of our studies. The asterisk corresponds to a non-specific band that is detected by the GFP antibody. • B. Representative fluorescent images of GFP-HttPolyQ(28)-2 and GFP-HttPolyQ(74)-3 stable cell lines. Note that GFP fluorescence is located in both the cytoplasm and the nucleus, but that compact foci are only seen in the GFP-HttPolyQ(74)-3 cells. • C. Cells expressing expanded polyglutamine proteins are more sensitive to H2O2. The GFP-HftPolyQ(28)-2 and GFP-HttPolyQ(74)-3 stable cell lines were exposed to 200 μM concentration of H2O2 and after 5 hr, the cells were stained with both Hoechest 33342 and PI. The cells stained by PI represent the dead cells whereas all the nuclei are identified by Hoechst 33342 staining. • D. Graph showing percentage of cell death after the cells were exposed to different concentrations of H2O2 for 5 hr. Percentages of cell death calculated by determining the ratio of PI-positively stained cells to that of Hoechst-stained cells. There was a significant difference in cell death upon exposure of GFP-HttPolyQ(28)-2 and GFP-HttPolyQ(74)-3 to 100 μM, 150 μM, or 200 μM of H2O2 (p<0.001). • E. Representative images showing that overexpression of ubiquilin-1 protects GFP-HttPolyQ(74)-3 expressing cells against serum withdrawal-induced cell death. Cells stably expressing GFP-HttPolyQ(28) or GFP-HttPolyQ(74) were transiently transfected with or without (mock transfection) plasmids encoding ubiquilin-1 by the calcium phosphate coprecipitation method. […] Cell death was quantified as described in D above. • H. Representative images showing that ubiquilin-1 overexpression protects GFP-HttPolyQ(74)-3 expressing cells against serum withdrawal-induced cell death, in a dose-dependent manner. […] After 5 hours of serum withdrawal and 30 hours following the transfection, the amount of cell death was analyzed by staining cells with both PI and Hoechst 33342. • I. Graph showing quantification of cell death in the experiments described in H. • J. Immunoblot showing overexpression of increasing amounts of ubiquilin-1 cDNA in the GFP-HttPolyQ(74)-3 cell line reduces GFP-aggregates trapped in the stacking gel after SDS-PAGE. […] Bottom panel: Quantification of the spot intensity determined in three independent experiments.\nHeLa cells were grown in DME supplemented with 10% FBS. […] Stable cell lines were identified by GFP-fluorescence.\nCell death was monitored either through examination of the nuclear morphology observed after Hoechst 33342 (1 μg/ml) staining, or through detecting the membrane selective permeability following 3 μM of propidium iodide (PI) staining. […]"}, "endogenous PS1 NTF": {"tested_on": "endogenous PS1 NTF", "test": "UBQLN overexpression in wild-type HEK293 cells, endogenous PS1 NTF immunoblot", "assay_type": "cell-based", "conditions": "normal HEK293 cells", "protocol": "(C) Endogenous PS fragment levels were analyzed in HEK293 cells that were transfected with increasing amounts of UBQLN1 or UBQLN2 expression plasmids. Equivalent amounts of protein lysates were separated by 10% SDS-PAGE and immunoblotted with anti-PS1 NTF antibody. The filter was then reprobed with anti-ubiquilin antibody to ensure overexpression of UBQLN and with an anti-actin antibody to ensure equal protein loading. Overexpression of UBQLN decreases PS1 NTF levels and the extent of reduction was quantified again by densitometric analysis. Graph is quantification of untransfected and […] UBQLN cDNA plasmid transfected lanes.\nPreparation of protein lysates, SDS-PAGE and immunoblotting of proteins were described previously. Primary antibodies used were rabbit anti-PS2 loop and rabbit anti-PS2 NH,-terminus, both raised to GST-PS2 fusion proteins; rabbit anti-ubiquilin [43] which reacts with UBQLN1 and UBQLN2 polypeptides; rat anti-PS1 NH2,-terminus (Chemicon International, Temecula, Calif.); rabbit anti-PS1 loop raised to GST-PS1 fusion proteins; goat anti-p27 and goat anti-actin (Santa Cruz Biotechnology, Santa Cruz, Calif.); mouse monoclonal anti-tubulin (Sigma-Aldrich, St. Louis, Mo.); rabbit anti-nicastrin (Abeam, Cambridge, Mass.), rabbit anti-Pen-2 (Zymed, San Francisco, Calif.); and rabbit anti-Aph-la (Covance, Berkeley, Calif.). […]"}}, "data": [{"substance": "UBQLN1: PS-interacting protein ubiquilin-1, overexpressed in cells from a cDNA expression plasmid", "values": [{"measurement": "spot intensity of GFP-aggregates, filter retardation assay", "setting": "[1]; GFP-HttPolyQ(74)-3 cells, 2, 3 and 6 μg vs mock or 1 μg", "result": "significantly lower"}, {"measurement": "cell death, ubiquilin-1-transfected vs mock-transfected", "setting": "[1]; GFP-HttQ28-2 cell line", "result": "no significant difference in cell death"}, {"measurement": "protection against cell death with increasing amounts of plasmid", "setting": "[1]; GFP-HttQ74-3 cell line", "result": "dose-dependent protection against cell death"}, {"measurement": "reduction in cell death", "setting": "[1]; GFP-HttQ74-3 cell line, 24 hours after transfection and serum deprivation, vs untransfected", "result": "approximately 50%"}, {"measurement": "reduction of endogenous PS1 NTF levels", "setting": "endogenous PS1 NTF", "result": "approximately 1.7 fold"}]}]}
